These results are taken from patent US9115122B2, “Non-ATP dependent inhibitors of extracellular signal-regulated kinase (ERK)” (UNIVERSITY OF MARYLAND, BALTIMORE, priority 2012, dated 2015).

Experiment [1] relates to A375 melanoma cells. Briefly: Cell proliferation, fluorescent Cell Titer Blue Assay (Example 1). The format is cell-based. The following applies: Homo sapiens, A-375; 48 hours. The protocol: (§1) FIG. 5. Dose dependent inhibition of cancer cell proliferation in vitro by SF-3-026 and analogs. A375 (closes circles), RPM17951 (closed squares), HeLa (open circles), or Jurkat (open squares) cells were treated for 48 hours with indicated concentration of (a) SF-3-026, (b) SF-2-027, (c) SF-2-029, or (d) SF-2-030 and cell proliferation was assessed by the fluorescent Cell Titer Blue Assay. The data were reproduced in 3 separate experiments.
(§2) Cells were seeded at 25,000 cells/well in 96-well plate and cultured overnight. Cells were treated for 24 hours with various concentrations of compounds and cell viability or caspase 3/7 activity were measured according to manufacturer's instructions using the fluorescent Cell Titer Blue Assay (Promega) or luminescent Caspase 3/7 Glo Assay (Promega).
(§3) It was next determined whether inhibition of AP-1 proteins by SF-3-026 and analogs affected the proliferation of cancer cells driven by mutations that constitutively activate the ERK1/2 pathway. For these experiments, A375 and RPMI7951 melanoma cells, which have a valine to glutamate mutation on residue 600 in BRaf that causes constitutive ERK1/2 activation, were chosen. Moreover, RPMI7951 cells are resistant to clinically used BRaf inhibitors due to overexpression of MAP3K8 (the gene encoding COT/Tp12) that re-activates ERK1/2 signaling. Both melanoma cells lines were treated with varying doses of SF-3-026 or analogs and cell viability was compared to HeLa cervical carcinoma and Jurkat T-cell leukemia cells, which are p53 defective but contain no known activating mutations in the ERK1/2 pathway.

In experiment [2] the test system is HeLa cervical carcinoma cells. The description is as above. The following applies: Homo sapiens, 48 hours. The format is cell-based. The protocol:
as §1, §2, §3

Experiment [3] has as its system Jurkat T-cell leukemia cells. The experiment is described as above. The format is cell-based. The settings on record: Homo sapiens, 48 hours. The protocol:
as §1, §2, §3

For experiment [4], the target named is ERK2 wild type (WT) (Rattus norvegicus (Rat), UniProt P63086). Briefly: Fluorescence quenching (FQ) binding affinity. The settings on record: 1 nM to 20 μM test compound.
In experiment [5] the target is ERK2 L114A (Rattus norvegicus (Rat), UniProt P63086, L114A). Put plainly: Fluorescence quenching (FQ) binding affinity. The settings on record: read-out: KD L114A (Site 2).
Experiment [6] has as its target ERK2 Y191A (Rattus norvegicus (Rat), UniProt P63086, Y191A). Briefly: Fluorescence quenching (FQ) binding affinity. The settings on record: read-out: KD Y191A (Site 2).
In experiment [7] the target is ERK2 R275A (Rattus norvegicus (Rat), UniProt P63086, R275A). Briefly: Fluorescence quenching (FQ) binding affinity. The following applies: read-out: KD R275A (Site 3).
Experiment [8] concerns the target ERK2 L265A (Rattus norvegicus (Rat), UniProt P63086, L265A). Briefly: Fluorescence quenching (FQ) binding affinity. The following applies: read-out: KD L265A (Site 4).
The target in experiment [9] is ERK2 L232A (Rattus norvegicus (Rat), UniProt P63086, L232A). Briefly: Fluorescence quenching (FQ) binding affinity. The settings on record: read-out: KD L232A (Site 5).
In experiment [10] the target is ERK2 L198A/L232A (Rattus norvegicus (Rat), UniProt P63086, L198A/L232A). Put plainly: Fluorescence quenching (FQ) binding affinity. The settings on record: read-out: KD L198A/L232A (Site 5).
Experiment [11] deals with ERK2 vs p38α MAP kinase. Put plainly: Selectivity for ERK2 compared to p38α MAP kinase. The format is binding.
The subject of experiment [12] is MEK1-induced AP-1 promoter activity. Briefly: AP-1 promoter luciferase assay, HeLa cells expressing active MEK1 mutant. Format: cell-based. The settings on record: Homo sapiens, 4 hours, read-out: IC50 inhibition of MEK1-induced AP-1 promoter activity. The protocol:
FIG. 4. Compound SF-3-026 and analogs inhibit SRE and AP-1 transcription factor function. (a) HeLa cells were transfected with constructs containing SRE or AP-1 promoters driving luciferase expression and then stimulated with EGF in the presence or absence of SF-3-026 for 4 hours followed by measurements of luciferase activity. Cells treated with U0126 were used as a positive inhibitor control. (b and c) HeLa cells were prepared and treated as in (a) with the indicated concentrations of SF-3-026 or analogs for 4 hours followed by the measurement of luciferase activity regulated by the SRE (b) or AP-1 (c) promoters. Data in (b and c) were normalized to EGF-only treatment and represent the mean and standard deviation from three independent experiments. (d) Compound SF-3-026 and analogs inhibit MEK1-induced AP-1 transcription factor function. HeLa cells were transfected with the AP-1 promoter construct and a constitutively active MEK1 mutant in the presence (10 μM) or absence of the MEK1/2 inhibitor (U0126) or an ATP-competitive ERK inhibitor (ERKi) for 4 hours followed by measurements of luciferase activity. (e) Cells expressing the AP-1 promoter and an active MEK-1 construct were treated with the indicated concentrations of SF-3-026 or analogs for 4 hours followed by the measurement of luciferase activity. Data in (e) were normalized to active MEK1-only treatment and represent the mean and standard deviation from three independent experiments.
HeLa cells were seeded in 24-well plates (40,000 cells/well) and incubated 18 hours to achieve ˜60-70% confluent. Cells were transfected with activator protein-1 (pAP1(PMA)-TA-Luc; Clontech) or the serum response element (pGL4.33-SRE; Promega) luciferase reporter plasmids (250 ng/well) using Lipofectamine™ (Invitrogen). After 16 hours, cells were pre-treated with varying amounts of compounds as indicated for 20 minutes, followed by stimulation with EGF (25 ng/mL) for 4.5 hr. In some experiments, cells transfected with the pAP1(PMA)-TA-Luc promoter and a constitutively active MEK1 mutant cDNA were treated with varying amounts of compounds during the last 4 hours of incubation. The luciferase activity in the cell extracts was determined with a Dual Luciferase Assay System (Promega) according to the manufacturer's instructions. Luciferase activities were monitored with a Lumat LB 9507 luminometer (Berthold Technology) and data were normalized to the amount of protein in each sample. […]

Experiment [13] concerns ERK1/2-mediated phosphorylation of Elk-1. Put plainly: Immunoblot of ERK1/2-mediated Elk-1 phosphorylation in EGF treated HeLa cells. The following applies: 100 μM, EGF 25 ng/mL 10 min. Format: cell-based. Background: A western blot detects proteins with antibodies after separation by electrophoresis.
Protocol: (b) HeLa cells were pre-incubated for 30 min with indicated compounds (100 μM) followed by treatment with EGF (25 ng/mL) for 10 min. to activate ERK1/2 signaling. Lysates were immunoblotted for phosphorylated Elk1 (pElk1 S383) or active ERK1/2 (pERK1/2). […] The MEK1/2 inhibitor U0126 (10 μM) was used to block all ERK1/2 signaling and α-tubulin expression was used as a protein loading control.
Proteins were separated by SDS-PAGE, analyzed by immunoblotting, and detected using enhanced chemiluminescence (ECL, GE Healthcare, United Kingdom).

One may read the GI50 as the concentration giving 50% growth inhibition. A high value points to less potent growth inhibition. In general, IC50 refers to the concentration that inhibits the measured activity by half.

Chain of ERK2 L232A (P63086 whole entry L232A): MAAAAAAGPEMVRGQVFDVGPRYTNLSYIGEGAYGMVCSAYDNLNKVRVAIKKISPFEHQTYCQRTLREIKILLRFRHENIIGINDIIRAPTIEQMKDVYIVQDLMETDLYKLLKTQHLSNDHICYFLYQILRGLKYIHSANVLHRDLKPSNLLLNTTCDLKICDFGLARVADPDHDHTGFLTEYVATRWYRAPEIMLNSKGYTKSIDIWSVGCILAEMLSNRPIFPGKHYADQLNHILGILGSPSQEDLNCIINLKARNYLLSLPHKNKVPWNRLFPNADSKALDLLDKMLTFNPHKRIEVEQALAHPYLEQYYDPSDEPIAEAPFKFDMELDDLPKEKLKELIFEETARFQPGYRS
Chain of ERK2 wild type (WT) (P63086 whole entry): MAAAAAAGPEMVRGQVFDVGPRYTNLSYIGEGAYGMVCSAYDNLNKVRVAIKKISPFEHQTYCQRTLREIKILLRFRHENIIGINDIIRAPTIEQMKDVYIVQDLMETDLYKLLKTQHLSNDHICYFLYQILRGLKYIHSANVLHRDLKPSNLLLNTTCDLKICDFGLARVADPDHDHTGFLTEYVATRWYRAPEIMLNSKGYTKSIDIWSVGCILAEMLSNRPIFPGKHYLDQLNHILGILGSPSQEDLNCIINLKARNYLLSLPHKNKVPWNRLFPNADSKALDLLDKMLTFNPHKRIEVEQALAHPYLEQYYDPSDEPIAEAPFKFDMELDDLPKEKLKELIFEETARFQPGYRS
Chain of ERK2 Y191A (P63086 whole entry Y191A): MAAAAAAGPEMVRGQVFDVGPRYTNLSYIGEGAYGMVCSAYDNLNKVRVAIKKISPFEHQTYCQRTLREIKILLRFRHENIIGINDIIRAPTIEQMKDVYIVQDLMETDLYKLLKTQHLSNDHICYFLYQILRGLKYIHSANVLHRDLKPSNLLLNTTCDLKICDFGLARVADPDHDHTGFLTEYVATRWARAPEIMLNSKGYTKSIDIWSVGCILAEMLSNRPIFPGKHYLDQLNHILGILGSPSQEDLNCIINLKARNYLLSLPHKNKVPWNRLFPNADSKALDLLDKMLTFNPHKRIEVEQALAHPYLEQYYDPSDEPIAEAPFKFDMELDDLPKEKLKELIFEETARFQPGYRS
Chain of ERK2 L265A (P63086 whole entry L265A): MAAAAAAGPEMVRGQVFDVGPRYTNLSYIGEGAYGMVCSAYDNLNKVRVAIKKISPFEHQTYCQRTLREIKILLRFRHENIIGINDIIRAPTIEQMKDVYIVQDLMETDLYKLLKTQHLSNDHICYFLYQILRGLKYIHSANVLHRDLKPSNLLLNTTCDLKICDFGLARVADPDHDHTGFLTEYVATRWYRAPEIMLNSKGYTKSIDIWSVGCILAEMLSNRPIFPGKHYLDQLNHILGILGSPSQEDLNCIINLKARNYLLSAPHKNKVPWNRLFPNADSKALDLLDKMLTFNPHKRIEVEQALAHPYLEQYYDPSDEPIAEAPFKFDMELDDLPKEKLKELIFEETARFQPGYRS
Chain of ERK2 L198A/L232A (P63086 whole entry L198A/L232A): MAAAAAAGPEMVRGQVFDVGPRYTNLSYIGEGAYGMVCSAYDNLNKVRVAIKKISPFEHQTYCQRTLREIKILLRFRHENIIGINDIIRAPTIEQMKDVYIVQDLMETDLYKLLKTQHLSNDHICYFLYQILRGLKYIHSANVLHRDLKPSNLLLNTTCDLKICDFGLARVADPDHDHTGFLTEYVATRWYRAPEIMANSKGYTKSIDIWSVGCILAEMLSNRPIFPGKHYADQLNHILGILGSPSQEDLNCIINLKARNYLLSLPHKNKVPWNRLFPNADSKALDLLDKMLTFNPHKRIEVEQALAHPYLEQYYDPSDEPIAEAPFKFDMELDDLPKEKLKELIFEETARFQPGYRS
Chain of ERK2 L114A (P63086 whole entry L114A): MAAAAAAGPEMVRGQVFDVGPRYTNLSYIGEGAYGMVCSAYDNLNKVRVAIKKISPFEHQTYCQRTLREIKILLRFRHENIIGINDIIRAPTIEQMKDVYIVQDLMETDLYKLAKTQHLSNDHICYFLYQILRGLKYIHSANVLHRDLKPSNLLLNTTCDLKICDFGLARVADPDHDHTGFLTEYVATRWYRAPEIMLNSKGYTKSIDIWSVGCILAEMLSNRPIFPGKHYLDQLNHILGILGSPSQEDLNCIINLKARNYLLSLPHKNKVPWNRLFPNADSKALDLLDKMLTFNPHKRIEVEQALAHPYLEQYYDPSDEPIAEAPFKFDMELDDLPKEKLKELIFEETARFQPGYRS
Chain of ERK2 R275A (P63086 whole entry R275A): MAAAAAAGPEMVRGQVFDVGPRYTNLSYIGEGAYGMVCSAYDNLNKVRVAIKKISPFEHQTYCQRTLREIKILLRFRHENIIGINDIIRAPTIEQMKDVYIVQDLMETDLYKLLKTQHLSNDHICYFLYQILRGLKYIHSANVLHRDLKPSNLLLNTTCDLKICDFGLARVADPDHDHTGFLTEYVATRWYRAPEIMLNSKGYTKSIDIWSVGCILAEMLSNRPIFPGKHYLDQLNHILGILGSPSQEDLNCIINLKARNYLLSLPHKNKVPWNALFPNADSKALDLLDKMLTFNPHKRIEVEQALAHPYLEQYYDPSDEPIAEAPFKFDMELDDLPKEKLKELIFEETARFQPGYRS

Consider `O=S1(=O)C=CC(OS(=O)(=O)c2ccccc2)C1` (stereo not shown) [SF-3-026], for which the GI50 is 7800 nM in experiment [1], 32000 nM in experiment [2] and above 50000 nM in experiment [3]. For the same compound, the Kd in [4] was 130 ± 20 nM; in experiment [5], 27 ± 10 nM; in experiment [6], 130 nM; in experiment [7] it was 240 nM; in [8] it was 280 nM; in experiment [9], 130 nM. Further, the Kd in experiment [10] was 140 ± 20 nM. The “selectivity for ERK2 as compared to p38α MAP kinase” value in experiment [11] is listed as around 150 fold. The IC50 in experiment [12] is around 40000 nM. Besides, the “inhibition of ERK1/2-mediated Elk-1 phosphorylation” value in [13] is on record as “inhibit ERK1/2-mediated phosphorylation”.
